{"source": "paper PMC3914206", "type_in_all_cases": "binding", "key": {"panel of 442 kinases [1]": {"biological_target": "T1, panel of 442 kinases (Homo sapiens, UniProt P0C264)", "T1 construct": "purchased KINOMEscan", "T1 sequence (P0C264 1-359)": "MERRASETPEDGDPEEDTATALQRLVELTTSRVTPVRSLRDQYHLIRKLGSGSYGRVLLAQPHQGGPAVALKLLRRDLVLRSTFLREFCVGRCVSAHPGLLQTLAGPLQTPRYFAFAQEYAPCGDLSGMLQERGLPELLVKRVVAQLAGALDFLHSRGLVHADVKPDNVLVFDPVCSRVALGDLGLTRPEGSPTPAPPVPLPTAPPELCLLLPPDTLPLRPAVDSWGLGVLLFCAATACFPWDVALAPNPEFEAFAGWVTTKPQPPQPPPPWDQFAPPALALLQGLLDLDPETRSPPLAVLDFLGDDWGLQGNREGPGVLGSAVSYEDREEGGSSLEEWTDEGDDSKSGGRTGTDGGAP", "details": "kinase SgK110; compound concentration 10 µM", "from_the_text": "(§1) We assessed the selectivity of members of this scaffold using the KINOMEscan methodology across a near comprehensive panel of 442 kinases [[18,27]]."}, "panel of 442 kinases [2]": {"biological_target": "T2, panel of 442 kinases (Homo sapiens, UniProt P41743)", "T2 construct": "purchased KINOMEscan", "T2 sequence (P41743 1-596)": "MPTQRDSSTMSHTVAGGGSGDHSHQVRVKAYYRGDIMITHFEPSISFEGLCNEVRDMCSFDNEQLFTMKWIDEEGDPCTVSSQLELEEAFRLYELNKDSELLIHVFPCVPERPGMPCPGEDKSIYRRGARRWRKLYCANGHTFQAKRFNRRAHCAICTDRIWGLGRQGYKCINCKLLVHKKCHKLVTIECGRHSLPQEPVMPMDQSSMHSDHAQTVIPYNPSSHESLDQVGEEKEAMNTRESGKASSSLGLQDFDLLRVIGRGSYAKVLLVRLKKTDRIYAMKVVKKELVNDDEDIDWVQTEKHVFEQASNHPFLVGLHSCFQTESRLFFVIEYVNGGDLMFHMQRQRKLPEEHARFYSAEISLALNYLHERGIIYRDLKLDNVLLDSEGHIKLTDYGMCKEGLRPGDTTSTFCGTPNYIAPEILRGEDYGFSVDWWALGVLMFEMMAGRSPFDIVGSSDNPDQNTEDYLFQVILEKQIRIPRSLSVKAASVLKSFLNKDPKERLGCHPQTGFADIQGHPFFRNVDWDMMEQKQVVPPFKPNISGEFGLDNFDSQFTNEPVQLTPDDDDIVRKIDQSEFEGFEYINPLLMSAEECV", "details": "Compound Concentration 10 µM", "from_the_text": "as §1"}, "panel of 442 kinases [3]": {"biological_target": "T3, panel of 442 kinases (Homo sapiens, UniProt Q9H1R3)", "T3 construct": "purchased KINOMEscan", "T3 sequence (Q9H1R3 whole entry)": "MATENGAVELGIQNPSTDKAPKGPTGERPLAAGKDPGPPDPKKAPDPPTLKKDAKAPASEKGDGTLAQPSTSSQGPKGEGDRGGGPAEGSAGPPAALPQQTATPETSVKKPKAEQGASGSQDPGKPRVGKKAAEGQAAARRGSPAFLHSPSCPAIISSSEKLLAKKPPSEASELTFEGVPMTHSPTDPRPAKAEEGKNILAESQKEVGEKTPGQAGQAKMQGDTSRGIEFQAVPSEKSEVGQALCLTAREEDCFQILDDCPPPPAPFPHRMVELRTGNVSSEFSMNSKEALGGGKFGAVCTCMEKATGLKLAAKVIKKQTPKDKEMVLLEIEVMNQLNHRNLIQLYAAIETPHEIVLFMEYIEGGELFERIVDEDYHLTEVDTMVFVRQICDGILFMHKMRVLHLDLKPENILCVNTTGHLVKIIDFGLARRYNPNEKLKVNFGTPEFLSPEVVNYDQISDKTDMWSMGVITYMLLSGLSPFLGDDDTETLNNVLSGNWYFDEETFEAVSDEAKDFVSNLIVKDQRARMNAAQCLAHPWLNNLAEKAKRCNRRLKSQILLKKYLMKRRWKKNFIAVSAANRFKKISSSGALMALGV", "details": "Compound Concentration 10 µM", "from_the_text": "as §1"}}}
{"smiles": "COc1cc(C(=O)N2CCC(N3CCN(C)CC3)CC2)ccc1Nc1ncc2c(n1)N(C1CCCC1)c1ccccc1C(=O)N2C", "note": "[Compound 25, 11-cyclopentyl-2-((2-methoxy-4-(4-(4-methylpiperazin-1-yl)piperidine-1-carbonyl)phenyl)amino)-5-methyl-5H-benzo[e]pyrimido[5,4-b][1,4]diazepin-6(11H)-one]", "values": [{"measurement": "% Ctrl, SgK110", "setting": "panel of 442 kinases [1]", "value": 43, "unit": "% Ctrl"}, {"measurement": "KINOMEscan: PRKCI", "setting": "panel of 442 kinases [2]", "value": 100}, {"measurement": "KINOMEscan: MYLK2", "setting": "panel of 442 kinases [3]", "value": 100}]}
{"smiles": "CCOc1cc(C(=O)N2CCC(N3CCN(C)CC3)CC2)ccc1Nc1ncc2c(n1)N(C1CCCC1)c1ccccc1C(=O)N2C", "note": "[Compound 26]", "values": [{"measurement": "% Ctrl, SgK110", "setting": "panel of 442 kinases [1]", "value": 81, "unit": "% Ctrl"}, {"measurement": "KINOMEscan: PRKCI", "setting": "panel of 442 kinases [2]", "value": 95}, {"measurement": "KINOMEscan: MYLK2", "setting": "panel of 442 kinases [3]", "value": 100}]}
{"smiles": "COc1cc(C(=O)N2CCC(N3CCN(C)CC3)CC2)ccc1Nc1ncc2c(n1)N1CCc3cccc(c31)C(=O)N2C", "note": "[Compound 24]", "values": [{"measurement": "KINOMEscan: MYLK2", "setting": "panel of 442 kinases [3]", "value": 85}]}
{"smiles": "COc1cc(C(=O)N2CCC(N3CCN(C)CC3)CC2)ccc1Nc1ncc2c(n1)N(C)c1ccccc1C(=O)N2C", "note": "[15 (LRRK2-IN-1)]", "values": [{"measurement": "% Ctrl, SgK110", "setting": "panel of 442 kinases [1]", "value": 62, "unit": "% Ctrl"}, {"measurement": "KINOMEscan: PRKCI", "setting": "panel of 442 kinases [2]", "value": 100}, {"measurement": "KINOMEscan: MYLK2", "setting": "panel of 442 kinases [3]", "value": 98}]}
